# Columns and labels:
# [1] = target: T1, GABAA2 receptors (α2, β3, γ2 receptor subunits transfected into Sf9 cells) (Homo sapiens, UniProt P18507+P47869); experiment: GABAA2 Binding Method ([3H]-Flunitrazepam displacement); conditions: [3H]-Flunitrazepam ~2 nM, α2β3γ2 Sf9 membranes, 1 hr at 4° C.
# T1 construct: host or cells: Sf9 cells (membranes)
# Outline: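 Membranes from Sf9 cells expressing α2β3γ2 GABAA receptors incubated with ~2 nM (final) [3H]-flunitrazepam and test compound 1 h at 4 °C, then filtered on GF/B plates with cold-buffer washes. Flumazenil-defined controls; percent of control, IC50 and Ki calculated.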
# GABAA receptor α1β2γ2 = target: T2, GABAA receptor α1β2γ2 (Homo sapiens, UniProt P14867+P18507); experiment: Two-electrode voltage-clamp potentiation of GABA EC10 current in Xenopus oocytes, GABAA1; assay type: cell-based; conditions: percentage potentiation of GABA EC10 current divided by that of diazepam
# T2 construct: expressed in transfected cells; host or cells: Xenopus laevis oocytes injected with cRNA
# Outline: (§1)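 Human GABAA receptors expressed in Xenopus oocytes by cRNA injection (α:β:γ molar ratio ~1:1:10 for α1β2γ2, 1:1:1 for α2β3γ2), recorded 2-10 days later by two-electrode voltage clamp at −60 mV in ND-96, pH 7.5. Modulator preapplied 30 s before GABA at per-oocyte EC10. Peak-current percent potentiation over GABA alone, normalised to diazepam.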
# GABAA receptor α2β3γ2 = target: T3, GABAA receptor α2β3γ2 (Homo sapiens, UniProt P18507+P47869); experiment: Two-electrode voltage-clamp potentiation of GABA EC10 current in Xenopus oocytes, GABAA2; assay type: cell-based; conditions: percentage potentiation of GABA EC10 current divided by that of diazepam
# T3 construct: expressed in transfected cells; host or cells: Xenopus laevis oocytes injected with cRNA
# Outline: as §1
# [2] = listed as 9-amino-2-cyclobutyl-5-(2-fluoro-6-methoxyphenyl)-2,3-dihydro-1H-pyrrolo[3,4-b]q
# T1 sequence (P47869 29-451): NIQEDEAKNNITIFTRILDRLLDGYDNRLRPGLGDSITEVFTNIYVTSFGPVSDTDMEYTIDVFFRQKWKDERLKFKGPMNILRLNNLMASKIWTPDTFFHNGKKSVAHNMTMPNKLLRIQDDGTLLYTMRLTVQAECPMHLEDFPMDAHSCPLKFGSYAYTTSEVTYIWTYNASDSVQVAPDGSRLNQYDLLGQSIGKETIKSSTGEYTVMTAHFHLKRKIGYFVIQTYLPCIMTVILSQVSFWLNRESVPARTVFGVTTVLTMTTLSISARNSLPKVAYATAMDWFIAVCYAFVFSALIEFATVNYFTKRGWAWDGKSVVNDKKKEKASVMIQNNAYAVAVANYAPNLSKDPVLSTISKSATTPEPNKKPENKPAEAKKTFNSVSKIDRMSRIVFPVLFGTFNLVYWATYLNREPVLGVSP
# T1 sequence (P28472 26-473 partner): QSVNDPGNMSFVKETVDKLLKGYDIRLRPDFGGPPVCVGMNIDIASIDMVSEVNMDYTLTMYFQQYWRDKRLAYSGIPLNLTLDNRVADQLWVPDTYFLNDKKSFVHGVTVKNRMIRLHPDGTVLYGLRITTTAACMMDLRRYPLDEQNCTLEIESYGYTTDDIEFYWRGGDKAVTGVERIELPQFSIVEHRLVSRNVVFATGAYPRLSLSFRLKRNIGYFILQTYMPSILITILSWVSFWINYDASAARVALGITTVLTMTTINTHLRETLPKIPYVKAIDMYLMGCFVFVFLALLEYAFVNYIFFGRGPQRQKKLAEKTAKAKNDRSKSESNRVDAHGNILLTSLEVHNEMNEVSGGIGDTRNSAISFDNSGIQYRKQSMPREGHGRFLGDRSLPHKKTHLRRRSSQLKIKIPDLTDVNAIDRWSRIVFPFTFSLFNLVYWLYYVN
# T1 sequence (P18507 40-475): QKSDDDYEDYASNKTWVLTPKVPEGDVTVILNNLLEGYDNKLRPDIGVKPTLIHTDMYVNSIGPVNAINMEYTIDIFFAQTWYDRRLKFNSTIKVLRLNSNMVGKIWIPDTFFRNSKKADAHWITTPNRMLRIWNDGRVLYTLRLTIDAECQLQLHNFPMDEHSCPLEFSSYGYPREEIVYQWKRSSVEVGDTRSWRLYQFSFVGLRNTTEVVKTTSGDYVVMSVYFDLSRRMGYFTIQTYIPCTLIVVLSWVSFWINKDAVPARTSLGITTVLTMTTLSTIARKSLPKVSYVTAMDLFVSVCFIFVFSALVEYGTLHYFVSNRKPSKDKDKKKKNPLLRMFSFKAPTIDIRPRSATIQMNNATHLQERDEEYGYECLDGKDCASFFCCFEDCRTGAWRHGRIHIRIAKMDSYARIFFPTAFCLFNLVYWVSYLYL
# T3 sequence (P47869 29-451): as the sequence (P47869 29-451) above
# T3 sequence (P28472 26-473 partner): as the sequence (P28472 26-473 partner) above
# T3 sequence (P18507 40-475): as the sequence (P18507 40-475) above
# T2 sequence (P14867 28-456): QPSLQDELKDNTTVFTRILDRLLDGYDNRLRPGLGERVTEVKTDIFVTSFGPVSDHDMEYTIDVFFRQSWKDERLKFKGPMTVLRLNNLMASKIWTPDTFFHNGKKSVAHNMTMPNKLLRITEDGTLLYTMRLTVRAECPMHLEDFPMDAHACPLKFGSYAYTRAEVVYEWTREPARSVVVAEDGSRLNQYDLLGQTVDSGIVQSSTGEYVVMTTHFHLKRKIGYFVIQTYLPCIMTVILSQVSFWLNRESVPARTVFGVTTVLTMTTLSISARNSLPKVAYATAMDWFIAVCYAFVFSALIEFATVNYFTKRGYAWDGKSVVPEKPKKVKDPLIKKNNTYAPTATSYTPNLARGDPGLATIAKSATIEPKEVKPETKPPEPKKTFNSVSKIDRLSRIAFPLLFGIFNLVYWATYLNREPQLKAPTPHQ
# T2 sequence (P47870 25-512 partner limits assumed): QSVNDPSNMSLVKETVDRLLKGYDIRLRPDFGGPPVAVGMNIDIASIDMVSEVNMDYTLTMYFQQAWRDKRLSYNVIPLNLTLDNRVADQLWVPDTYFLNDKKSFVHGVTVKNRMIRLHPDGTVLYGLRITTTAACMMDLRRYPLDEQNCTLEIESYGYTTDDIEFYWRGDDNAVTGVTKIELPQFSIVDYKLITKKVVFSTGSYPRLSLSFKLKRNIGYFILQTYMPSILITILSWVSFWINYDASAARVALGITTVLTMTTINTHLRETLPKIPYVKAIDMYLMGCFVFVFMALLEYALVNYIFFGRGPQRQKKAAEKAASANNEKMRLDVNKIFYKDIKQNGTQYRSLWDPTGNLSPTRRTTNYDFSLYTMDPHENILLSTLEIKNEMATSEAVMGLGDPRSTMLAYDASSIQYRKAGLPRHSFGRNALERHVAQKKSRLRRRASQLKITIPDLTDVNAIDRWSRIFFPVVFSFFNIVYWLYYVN
# T2 sequence (P18507 40-475): as the sequence (P18507 40-475) above
SMILES,Ki [1] [nM],Relative Potentiation for GABAA1 (GABAA receptor α1β2γ2),Relative Potentiation for GABAA2 (GABAA receptor α2β3γ2),Relative Potentiation for GABAA1 (GABAA receptor α1β2γ2; [2]),Relative Potentiation for GABAA2 (GABAA receptor α2β3γ2; [2])
"CCCN1Cc2nc3c(-c4ccc(C)nc4)cccc3c(N)c2C1=O [Example 10, 9-Amino-5-(6-methylpyridin-3-yl)-2-propyl-2,3-dihydropyrrolo[3,4-b]quinolin-1-one]",92.2,0.092,0.19,–,–
"COc1ccc(OC)c(-c2cccc3c(N)c4c(nc23)CN(Cc2ccc(OC)c(OC)c2)C4=O)c1 [Example 11, 9-Amino-2-(3,4-dimethoxybenzyl)-5-(2,5-dimethoxyphenyl)-2,3-dihydropyrrolo[3,4-b]quinolin-1-one]",11,0.15,0.19,–,–
"CCCN1Cc2nc3c(-c4cnc(OC)cc4C)cccc3c(N)c2C1=O [Example 12, 9-Amino-5-(6-methoxy-4-methylpyridin-3-yl)-2-propyl-2,3-dihydropyrrolo[3,4-b]quinolin-1-one]",50.6,0.17,0.23,–,–
"CCCN1Cc2nc3c(-c4cccnc4F)cccc3c(N)c2C1=O [Example 13, 9-Amino-5-(2-fluoropyridin-3-yl)-2-propyl-2,3-dihydropyrrolo[3,4-b]quinolin-1-one]",26.7,0.21,0.37,–,–
"COc1ccc(C)cc1-c1cccc2c(N)c3c(nc12)CN(Cc1ccc2c(c1)OCO2)C3=O [Example 14, 9-Amino-2-benzo[1,3]dioxol-5-ylmethyl-5-(2-methoxy-5-methylphenyl)-2,3-dihydropyrrolo[3,4-b]quinolin-1-one]",15.5,0.22,0.37,–,–
"CCCN1Cc2nc3c(-c4ccc(C)nc4Cl)cccc3c(N)c2C1=O [Example 15, 9-Amino-5-(2-chloro-6-methylpyridin-3-yl)-2-propyl-2,3-dihydropyrrolo[3,4-b]quinolin-1-one]",7.06,0.29,0.87,–,–
"CCN1Cc2nc3c(-c4c(F)cccc4OC)cccc3c(N)c2C1=O [Example 17, 9-Amino-2-ethyl-5-(2-fluoro-6-methoxyphenyl)-2,3-dihydropyrrolo[3,4-b]quinolin-1-one]",4.36,−0.11,0.15,–,–
"COc1cccc(F)c1-c1cccc2c(N)c3c(nc12)CN(C1CCC1)C3=O [Example 18, 9-Amino-2-cyclobutyl-5-(2-fluoro-6-methoxyphenyl)-2,3-dihydropyrrolo[3,4-b]quinolin-1-one]",1.62,–,–,−0.07,0.2
"CCN1Cc2nc3c(-c4cccnc4OC)cccc3c(N)c2C1=O [Example 19, 9-Amino-2-ethyl-5-(2-methoxypyridin-3-yl)-2,3-dihydropyrrolo[3,4-b]quinolin-1-one]",24.2,0.022,0.28,–,–
"COc1cccc(F)c1-c1cccc2c(N)c3c(nc12)CN(C)C3=O [Example 20, 9-Amino-5-(2-fluoro-6-methoxyphenyl)-2-methyl-2,3-dihydropyrrolo[3,4-b]quinolin-1-one]",18.8,0.046,0.26,–,–
"COc1cccc(-c2cccc3c(N)c4c(nc23)CN(C2CC2)C4=O)c1F [Example 22, 9-Amino-2-cyclopropyl-5-(2-fluoro-3-methoxyphenyl)-2,3-dihydropyrrolo[3,4-b]quinolin-1-one]",18.2,0.07,0.14,–,–
"COc1ccc(CN2Cc3nc4c(-c5ccc(C)nc5Cl)cccc4c(N)c3C2=O)cc1OC [Example 23, 9-Amino-5-(2-chloro-6-methylpyridin-3-yl)-2-(3,4-dimethoxybenzyl)-2,3-dihydropyrrolo[3,4-b]quinolin-1-one]",4.36,0.11,0.34,–,–
"CCCN1Cc2nc3c(-c4ccc(OC)nc4OC)c(F)ccc3c(N)c2C1=O [Example 24, 9-Amino-5-(2,6-dimethoxypyridin-3-yl)-6-fluoro-2-propyl-2,3-dihydropyrrolo[3,4-b]quinolin-1-one]",2.94,0.15,0.35,–,–
"CCN1Cc2nc3c(-c4ccccc4C#N)cccc3c(N)c2C1=O [Example 25, 2-(9-Amino-2-ethyl-1-oxo-2,3-dihydro-1H-pyrrolo[3,4-b]quinolin-5-yl)-benzonitrile]",14.1,−0.11,0.17,–,–
"CCN1Cc2nc3c(-c4ccc(OC)nc4OC)c(F)ccc3c(N)c2C1=O [Example 26, 9-Amino-5-(2,6-dimethoxypyridin-3-yl)-2-ethyl-6-fluoro-2,3-dihydropyrrolo[3,4-b]quinolin-1-one]",8.96,0.062,0.18,–,–
"CCN1Cc2nc3c(-c4ccc(OC)c(OC)c4)cccc3c(N)c2C1=O [Example 29, 9-Amino-2-ethyl-5-(3,4-dimethoxyphenyl)-2,3-dihydropyrrolo[3,4-b]quinolin-1-one]",21.4,0.07,0.19,–,–
"CCN1Cc2nc3c(-c4ccc(F)cc4OC)cccc3c(N)c2C1=O [Example 32, 9-Amino-2-ethyl-5-(4-fluoro-2-methoxyphenyl)-2,3-dihydropyrrolo[3,4-b]quinolin-1-one]",22.1,−0.05,0.2,–,–
"CCN1Cc2nc3c(-c4cccc(OC)c4F)cccc3c(N)c2C1=O [Example 33, 9-Amino-2-ethyl-5-(2-fluoro-3-methoxyphenyl)-2,3-dihydropyrrolo[3,4-b]quinolin-1-one]",9.93,0.01,0.21,–,–
"COc1cccc(F)c1-c1c(F)ccc2c(N)c3c(nc12)CN(C1CC1)C3=O [Example 35, 9-Amino-2-cyclopropyl-6-fluoro-5-(2-fluoro-6-methoxyphenyl)-2,3-dihydropyrrolo[3,4-b]quinolin-1-one]",2.59,−0.075,0.24,–,–
"COc1ncccc1-c1c(F)ccc2c(N)c3c(nc12)CN(C1CC1)C3=O [Example 38, 9-Amino-2-cyclopropyl-6-fluoro-5-(2-methoxypyridin-3-yl)-2,3-dihydropyrrolo[3,4-b]quinolin-1-one]",2.59,0.11,0.26,–,–
